Assay results reported in ChEMBL document CHEMBL1828565, “Potential AMPK activators of cucurbitane triterpenoids from Siraitia grosvenorii Swingle” (Bioorg Med Chem, 2011).
Calls of active or inactive are those of the source. No cut-off for these calls is given here.

Molecular target: T1, AMP-activated protein kinase, AMPK (Homo sapiens) (UniProt P54646+O43741+P54619+Q9UGJ0+Q9Y478+Q13131+Q9UGI9)
Assay: Activation of AMPK in human HepG2 cells assessed as increase in AMPK phosphorylation at 10 uM after 30 mins by Western blotting
Type: cell-based

Q: For `CC(C)C(=O)CC[C@@H](C)[C@H]1CC[C@@]2(C)[C@@H]3CC=C4[C@@H](CC[C@@H](O)C4(C)C)[C@]3(C)[C@H](O)C[C@]12C`, which Activity is on record?
A: Active

Molecular target: T1, AMP-activated protein kinase, AMPK (Homo sapiens)
Assay: Activation of AMPK in human HepG2 cells assessed as increase in AMPK phosphorylation at 1 to 20 uM after 30 mins by Western blotting
Type: cell-based

Q: `C[C@H](CC[C@@H](O)C(C)(C)O)[C@H]1CC[C@@]2(C)[C@@H]3CC=C4[C@@H](CC[C@H](O)C4(C)C)[C@]3(C)C(=O)C[C@]12C` was tested. Which Activity did it give?
A: Active

Q: Which Activity does the source give for `COC(C)(C)[C@H](O)CC[C@@H](C)[C@H]1CC[C@@]2(C)[C@@H]3CC=C4[C@@H](CC[C@H](O)C4(C)C)[C@]3(C)C(=O)C[C@]12C` here?
A: Active

Q: With `CC(C)C(=O)CC[C@@H](C)[C@H]1CC[C@@]2(C)[C@@H]3CC=C4[C@@H](CC[C@H](O)C4(C)C)[C@]3(C)C(=O)C[C@]12C` as the compound, how does the Activity read?
A: Active

Q: Which Activity does the source give for `COc1ccc2cc3[n+](cc2c1OC)CCc1cc2c(cc1-3)OCO2` here?
A: Active

Q: Which Activity does the source give for `C[C@H](CC[C@@H](O)C(C)(C)O)[C@H]1CC[C@@]2(C)[C@@H]3CC=C4[C@@H](CC[C@@H](O)C4(C)C)[C@]3(C)[C@H](O)C[C@]12C` here?
A: Active

Q: With `C[C@H](CC[C@@H](O[C@@H]1O[C@H](CO[C@@H]2O[C@H](CO)[C@@H](O)[C@H](O)[C@H]2O)[C@@H](O)[C@H](O)[C@H]1O[C@@H]1O[C@H](CO)[C@@H](O)[C@H](O)[C@H]1O)C(C)(C)O)[C@H]1CC[C@@]2(C)[C@@H]3CC=C4[C@@H](CC[C@H](O[C@@H]5O[C@H](CO[C@@H]6O[C@H](CO)[C@@H](O)[C@H](O)[C@H]6O)[C@@H](O)[C@H](O)[C@H]5O)C4(C)C)[C@]3(C)[C@H](O)C[C@]12C` as the compound, how does the Activity read?
A: inactive

Q: Which Activity does the source give for `COC(C)(C)[C@H](O)CC[C@@H](C)[C@H]1CC[C@@]2(C)[C@@H]3CC=C4[C@@H](CC[C@H](O)C4(C)C)[C@]3(C)[C@H](O)C[C@]12C` here?
A: Active

Q: `C[C@H](CC[C@@H](O)C(C)(C)O)[C@H]1CC[C@@]2(C)[C@@H]3CC=C4[C@@H](CC[C@H](O)C4(C)C)[C@]3(C)[C@H](O)C[C@]12C` was tested. Which Activity did it give?
A: Active

Q: With `CC(C)C(=O)CC[C@@H](C)[C@H]1CC[C@@]2(C)[C@@H]3CC=C4[C@@H](CC[C@H](O)C4(C)C)[C@]3(C)[C@H](O)C[C@]12C` as the compound, how does the Activity read?
A: Active
